The values that follow come from ChEMBL document CHEMBL5149975, “Freshwater Fungi as a Source of Chemical Diversity: A Review” (J Nat Prod, 2021).

The subject of experiment [1] is Staphylococcus aureus. Nature of the experiment: Antibacterial activity against Staphylococcus aureus ATCC 6538 inhibition of zones at 50 ug per disk by standard disk assay. The experiment is classed as functional. The settings on record: read-out: IZ.
For experiment [2], the system named is Staphylococcus aureus. Nature of the experiment: Antimicrobial activity against Staphylococcus aureus. The experiment is classed as functional.
For experiment [3], the system named is Mycolicibacterium smegmatis. Nature of the experiment: Antimicrobial activity against Mycobacterium smegmatis. The class given is functional.
Experiment [4] concerns Staphylococcus aureus. Nature of the experiment: Antibacterial activity against Staphylococcus aureus ATCC25923 measured after 18 hrs by agar dilution method. The class given is functional. On the technique in general: In agar dilution, organisms are placed on agar that contains the substance at set levels.
Another experiment concerns Candida albicans. Nature of the experiment: Antifungal activity against clinical isolate Candida albicans measured after 24 hrs by agar dilution method. The experiment is classed as functional.
Experiment [5] is described as follows: Antioxidant activity of the compound by DPPH assay. The class given is functional. On the technique in general: The DPPH test is a chemical assay of radical scavenging.
Another experiment has as its system Pseudomonas aeruginosa. The experiment is described as follows: Antimicrobial activity against Pseudomonas aeruginosa. The experiment is classed as functional.
The test system of a further experiment is Bacillus cereus. The experiment is described as follows: Antibacterial activity against Bacillus cereus by microtiter plate method. The class given is functional.
For a further experiment, the system named is Vibrio anguillarum. Nature of the experiment: Antibacterial activity against Vibrio anguillarum by microtiter plate method. The class given is functional.
In another experiment the test system is Vibrio parahaemolyticus. Nature of the experiment: Antibacterial activity against Vibrio parahaemolyticus by microtiter plate method. The class given is functional.
Experiment [6] addresses T1, Tyrosine-protein phosphatase non-receptor type 1 (Homo sapiens) (UniProt P18031).
T1 sequence (whole entry): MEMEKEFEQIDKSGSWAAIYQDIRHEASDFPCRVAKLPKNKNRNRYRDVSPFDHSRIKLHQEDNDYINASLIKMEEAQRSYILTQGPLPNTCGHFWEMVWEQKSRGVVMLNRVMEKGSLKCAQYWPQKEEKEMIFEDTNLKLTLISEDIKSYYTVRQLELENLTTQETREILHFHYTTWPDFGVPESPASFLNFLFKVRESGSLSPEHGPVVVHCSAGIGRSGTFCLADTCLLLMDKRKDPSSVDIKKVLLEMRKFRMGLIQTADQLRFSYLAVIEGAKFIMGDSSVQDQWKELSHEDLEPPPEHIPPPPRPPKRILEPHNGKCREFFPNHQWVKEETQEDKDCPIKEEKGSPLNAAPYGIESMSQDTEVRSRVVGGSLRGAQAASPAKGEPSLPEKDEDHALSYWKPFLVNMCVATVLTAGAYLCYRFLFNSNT
Nature of the experiment: Inhibition of human recombinant PTP1B (1 to 322 residues) expressed in Escherichia coli using pNPP as substrate at 36 uM incubated for 10 mins followed by substrate addition and measured after 30 mins by microplate reader based analysis relative to control. The conditions noted are these: time 40.0 min.

In experiment [7] the target is T2, Tyrosine-protein phosphatase non-receptor type 1 (Homo sapiens, UniProt P18031).
T2 sequence (P18031 whole entry): T1 sequence (whole entry)
The experiment is described as follows: Inhibition of PTP1B (unknown origin).

Experiment [8] addresses T1, Tyrosine-protein phosphatase non-receptor type 1 (Homo sapiens). The experiment is described as follows: Inhibition of PTP1B (unknown origin) at 15.7 uM relative control.
The target of experiment [9] is T2, Tyrosine-protein phosphatase non-receptor type 1. Nature of the experiment: Inhibition of human recombinant PTP1B (1 to 322 residues) expressed in Escherichia coli using pNPP as substrate incubated for 10 mins followed by substrate addition and measured after 30 mins by microplate reader based analysis.

SMILES strings stand for the structures. Converted amounts (≈) assume the structure as drawn.

Take `COc1ccc(OC)c2c1OCc1cc(CO)cc(O)c1C2=O`: the zone of inhibition at 50 µg/disc with Staphylococcus aureus [1] was 11 mm.
Consider `COc1ccc(OC)c2c1OCc1cc(C)cc(O)c1C2=O`, for which the zone of inhibition at 50 µg/disc in the experiment with Staphylococcus aureus [1] was found to be 11 mm.
Turning to `Cc1cc(O)c2c(c1)COc1c(O)ccc(O)c1C2=O`, the zone of inhibition at 50 µg/disc with Staphylococcus aureus [1] was determined as 11 mm.
As for `O=C1C=C2OC3(O)CC(=O)c4c(O)cccc4C3=C2c2cccc(O)c21` (stereo not drawn), the MIC amounted to 86 µM against Staphylococcus aureus [2] and 172 µM (≈ 59.9 µg/mL) in [3].
Turning to `C=C1C[C@@H](O)C[C@@]2(C)CC[C@H](C(C)(C)O)CC12` (stereo partly drawn), the MIC in the experiment on Staphylococcus aureus [4] and in the experiment on Candida albicans was over 128 µg/mL each time.
In the case of `C=C1CCC[C@@]2(C)CC(O)[C@H](C(C)(C)O)C[C@]12O` (stereo partly drawn), the MIC in the experiment with Staphylococcus aureus [4] and against Candida albicans was over 128 µg/mL throughout.
On to `COC(=O)[C@H]1C[C@@H](C)[C@H]2[C@@H](C=C[C@H](C)[C@@H]2/C=C/C=C/C(=O)O)[C@@H]1C`, for which the IC50 in experiment [5] is 2.8 µM.
Turning to `C=C1CCC[C@@]2(C)C[C@H](O)[C@H](C(C)(C)O)C[C@@]12O`, the MIC in the experiment on Staphylococcus aureus [4] and against Candida albicans was over 128 µg/mL in each case.
For the compound `CC1(C)C=Cc2c(ccc3c2N[C@]2(C[C@@]45NC(=O)[C@]6(CCCN6C4=O)CC5C2(C)C)C3=O)O1` (stereo partly drawn), the MIC against Pseudomonas aeruginosa was 0.8 µM (≈ 0.358 µg/mL).
For `O=c1[nH]c2ccccc2c(-c2ccccc2)c1O`, the MIC with Bacillus cereus, in the experiment with Vibrio anguillarum and against Vibrio parahaemolyticus was 25 µM (≈ 5.93 µg/mL) in each case.
For `COc1cc(O)cc(C)c1Oc1cc(C)cc(O)c1O`, the inhibition in experiment [6] came to 32%.
Consider `C=C1CCC[C@@]2(C)CC[C@H](C(C)(C)O)C[C@]12O`, for which the MIC with Staphylococcus aureus [4] and against Candida albicans was over 128 µg/mL in each case.
In [7], `COC(=O)[C@@]12Oc3c(-c4ccc5c(c4O)C(=O)C4=C(O)C[C@H](C)[C@H](O)[C@]4(C(=O)OC)O5)ccc(O)c3C(=O)C1=C(O)C[C@H](C)[C@H]2O` had an IC50 of 5.9 µM.
In the case of `O=C1c2c(O)cc(CO)cc2COc2c(O)c(O)cc(O)c21`, the zone of inhibition at 50 µg/disc with Staphylococcus aureus [1] amounted to 11 mm.
Take `C=C1CCC[C@]2(C)C1C[C@@H](C(C)(C)O)C[C@@H]2O` (stereo partly drawn): the MIC against Staphylococcus aureus [4] and against Candida albicans was over 128 µg/mL throughout.
In the case of `COC(=O)[C@@]12Oc3ccc(-c4ccc5c(c4O)C(=O)C4=C(O)C[C@H](C)[C@@H](O)[C@]4(C(=O)OC)O5)c(O)c3C(=O)C1=C(O)C[C@H](C)[C@H]2O`, in experiment [8], the inhibition came out at 40%.
On to `COc1cc(C)c(Oc2cc(C)cc(O)c2O)c(O)c1`, for which the IC50 in experiment [9] was determined as 13 µM.
`O=c1c(O)c(-c2ccc(O)c(O)c2)oc2cc(O)cc(O)c12` [QUERCETIN] showed an IC50 in experiment [5] of 5.7 µM.
Take `COc1cc(O)c2c(c1C)[C@H](C)C(=O)OC2=O`: the MIC against Staphylococcus aureus [2] came out at 33 µg/mL.
For the compound `C=C1CCC[C@@]2(C)CC[C@H](C(C)(C)O)CC12` (stereo partly drawn), the MIC in the experiment with Staphylococcus aureus [4] and in the experiment on Candida albicans was over 128 µg/mL in each case.
In turn, `COC(=O)[C@@]12Oc3ccc(Oc4cccc5c4C(=O)C4=C(O)C[C@H](C)[C@H](O)[C@]4(C(=O)OC)O5)c(O)c3C(=O)C1=C(O)C[C@H](C)[C@H]2O` displayed an IC50 in experiment [7] of 6 µM.
Compound `COC(=O)[C@@]12Oc3ccc(-c4ccc5c(c4O)C(=O)C4=C(O)C[C@H](C)[C@H](O)[C@]4(C(=O)OC)O5)c(O)c3C(=O)C1=C(O)C[C@H](C)[C@H]2O` returned an IC50 in [7] of 9.6 µM.
As for `COc1cc(O)c(OC)c2c1C(=O)c1c(O)cc(C)cc1CO2`, in the experiment with Staphylococcus aureus [1], the zone of inhibition at 50 µg/disc was found to be 11 mm.
For the compound `COc1cc(C)c(Oc2cc(C)cc(O)c2)c(O)c1` [CYPERIN], the IC50 in experiment [9] stood at 17 µM.

Broadly, the MIC is the least concentration at which growth counts as inhibited. The IC50 is the concentration that inhibits the measured activity by half. Usually inhibition stands for the drop in the measured response relative to a control, in per cent.
